{"source": "patent US20080282364A1", "about": "“Phosphodiesterase 9 Inhibition as Treatment for Obesity-Related Conditions” (priority 2003, published 2008)", "test_system": "ob/ob mice", "assay": "Effect of pharmacologic PDE9 inhibition on body weight, food intake and plasma metabolites in ob/ob mice", "assay_type": "in vivo, mouse", "details": "female ob/ob mice", "description": "On Day 1, plasma glucose was determined via retro-orbital blood samples. 25 μL of blood was added to 100 μL of 0.025 percent heparinized-saline in microtubes (Denville Scientific, Inc., Metuchen, N.J.). The tubes were spun at the highest setting in a Beckman Microfuge 12 for 2 minutes. Plasma was collected for plasma glucose and triglyceride determination, as further described below. During the course of the study, body weight and food consumption were assessed, and blood samples were taken at approximately 8 am for plasma glucose and triglyceride measures, as further described below.\nPlasma glucose, triglycerides, and fructosamine were measured using the Roche/Hitachi 912 Clinical Chemistry Analyzer (Roche Diagnostics Corp., Indianapolis, Ind.). Plasma cGMP was measured using the BioTrak™ enzyme-immunoassay system (Amersham, Piscataway, N.J.). Plasma insulin was assessed via a similar technique using the Mercodia ELISA Insulin kit supplied by ALPCO (Uppsala, Sweden). All assays were conducted according to each manufacturer's instructions.\nFemale ob/ob mice obtained from Jackson Laboratories (Bar Harbor, Me.) were used at 6 to 10 weeks of age. Mice were housed five per cage and allowed free access to water and, initially, to D11 mouse chow. Following a one week acclimation period, mice were switched to a powdered diet (Mouse Breeder/Auto-JL K20 mouse chow, PMI Feeds, Inc., St. Louis, Mo.) for three days and allowed to adapt to the diet prior to the start of the PDE9 inhibitor dosing period.\nThe PDE9 inhibitor compound (Compound A) was administered in powdered mouse chow that was custom ground (Research Diets, Inc., New Brunswick, N.J.) as a compound/chow admixture; compounds were mixed with the chow to achieve consumption of the specified doses ranging from 1-200 mg/kg/day. In addition to a compound-free control group, a group consuming darglitazone (1 mg/kg/day) was also included as a positive control.\nMice were randomly assigned to groups of ten with five mice per cage. Body weight was determined on Day 0 and weekly thereafter. On Day 1, retro-orbital blood samples were obtained and plasma glucose was determined as previously described. On the final day of the study, blood samples were taken for glucose, triglyceride, insulin, and cGMP measurements, as previously described."}
{"molecule": "CC(C)c1n[nH]c2c(=O)[nH]c(Cc3ccccc3OCCN3CCOCC3)nc12", "note": "[Compound A, 3-isopropyl-5-[2-(2-morpholin-4-yl-ethoxy)-benzyl]-1,6-dihydro-pyrazolo[4,3-d]pyrimidin-7-one]", "values": [{"measurement": "plasma glucose", "setting": "100 mg/kg/day (FIG. 10)", "value": "decreased"}, {"measurement": "plasma triglycerides", "setting": "100 mg/kg/day (FIG. 11)", "value": "decreased"}, {"measurement": "body weight gain", "setting": "100 mg/kg/day in chow, compared to compound-free control diet or darglitazone-treated diet (FIG. 7)", "value": "reduced body weight gain"}, {"measurement": "plasma fructosamine", "setting": "100 mg/kg/day, Day 16 (FIG. 12)", "value": "decreased"}, {"measurement": "food intake", "setting": "100 mg/kg/day, later stages of the study (FIG. 9)", "value": "no effect on food intake"}, {"measurement": "reducing the normal body weight gain (dose effect)", "setting": "following 2 and 4 days of treatment (FIG. 8A)", "value": "dose-dependent effect"}, {"measurement": "reducing food intake (dose effect)", "setting": "following 2 and 4 days of treatment (FIG. 8B)", "value": "dose-dependent effect"}]}
